Patent US9034922B2, “Composition for maintaining function of platelets” (THE UNIVERSITY OF TOKYO, priority 2010, dated 2015)

How the values were obtained:
[1] = molecular target: T1, Matrix metalloproteinase 8 (MMP-8) (Homo sapiens, UniProt P22894); experiment: Enzyme inhibition experiment, MMP-8; format: biochemical; conditions: 3163 substrate, 37° C., 5 hours
T1 construct: purchased Calbiochem 444229
Procedure: (§1) The enzyme reaction was carried out using the enzymes and substrates. Specifically, if necessary, the enzyme was activated in advance with APMA (final concentration 1 mmol/L, p-aminophenylmercuric acetate, manufactured by Sigma-Aldrich Co., A9563) according to information from the manufacturer. Then, in a 96-well plate for fluorescence measurement, 90 μL of an enzyme solution prepared with Assay Buffer A (50 mmol/L Tris-HCl buffer (pH 7.5) containing 200 mmol/L sodium chloride, 5 mmol/L calcium chloride, 10 μmol/L zinc sulfate, and 2 mg/mL bovine serum albumin) was mixed with 90 μL of the substrate adjusted to be 20 μmol/L with Assay Buffer B (50 mmol/L Tris-HCl buffer (pH 7.5) containing 200 mmol/L sodium chloride, 5 mmol/L calcium chloride, 10 μmol/L zinc sulfate, and 0.05% PLURONIC F-68), and incubated for reaction at 25° C. or 37° C. for several hours. Moreover, the fluorescence intensities before and after the reaction were measured using a fluorometer to determine the enzyme activity.

[2] = molecular target: T2, Matrix metalloproteinase 9 (MMP-9) (Homo sapiens, UniProt P14780); experiment: Enzyme inhibition experiment, MMP-9; format: biochemical; conditions: 444221 substrate, 37° C., 4 hours
T2 construct: purchased Calbiochem 444231
T2 sequence (P14780 94-707): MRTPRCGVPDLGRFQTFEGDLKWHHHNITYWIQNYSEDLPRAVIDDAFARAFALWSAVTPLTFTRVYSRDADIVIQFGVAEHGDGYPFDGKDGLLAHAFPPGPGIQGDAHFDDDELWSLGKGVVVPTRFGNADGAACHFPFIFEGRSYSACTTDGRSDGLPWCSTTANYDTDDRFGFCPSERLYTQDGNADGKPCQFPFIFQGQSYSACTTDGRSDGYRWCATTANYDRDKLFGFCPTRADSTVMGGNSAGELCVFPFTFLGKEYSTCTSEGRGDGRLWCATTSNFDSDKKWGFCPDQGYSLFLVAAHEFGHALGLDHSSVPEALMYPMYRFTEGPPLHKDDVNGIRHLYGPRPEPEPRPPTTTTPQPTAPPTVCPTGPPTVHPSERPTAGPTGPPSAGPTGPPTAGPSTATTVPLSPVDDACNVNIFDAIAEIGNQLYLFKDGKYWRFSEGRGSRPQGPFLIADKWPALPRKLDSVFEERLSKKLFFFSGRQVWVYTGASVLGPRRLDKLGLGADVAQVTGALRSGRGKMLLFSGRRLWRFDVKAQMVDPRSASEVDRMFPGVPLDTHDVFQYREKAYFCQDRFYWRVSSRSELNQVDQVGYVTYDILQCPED
Procedure: as §1

[3] = molecular target: T3, Matrix metalloproteinase 1 (MMP-1) (Homo sapiens, UniProt P03956); experiment: Enzyme inhibition experiment, MMP-1; format: biochemical; conditions: 444221 substrate, 37° C., 5 hours
T3 construct: purchased Calbiochem 444208
T3 sequence (P03956 100-469): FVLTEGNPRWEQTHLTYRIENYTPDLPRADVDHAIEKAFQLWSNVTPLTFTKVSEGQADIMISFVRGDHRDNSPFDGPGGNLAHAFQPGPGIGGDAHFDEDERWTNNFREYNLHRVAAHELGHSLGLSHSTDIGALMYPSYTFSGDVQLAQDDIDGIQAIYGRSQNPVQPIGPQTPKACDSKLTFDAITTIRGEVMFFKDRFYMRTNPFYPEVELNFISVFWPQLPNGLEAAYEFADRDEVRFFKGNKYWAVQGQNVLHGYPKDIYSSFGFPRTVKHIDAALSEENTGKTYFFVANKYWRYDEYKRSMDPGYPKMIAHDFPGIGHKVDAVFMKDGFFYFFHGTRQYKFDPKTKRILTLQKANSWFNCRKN
Procedure: as §1, with “activity. An inhibition rate was obtained based on the enzyme activities in the presence and absence of the test substances, and the 50% inhibitory concentration (IC50) was calculated.” for “activity.”

[4] = molecular target: T4, A disintegrin and metalloproteinase 10 (ADAM10) (Homo sapiens, UniProt O14672); experiment: Enzyme inhibition experiment, ADAM10; format: biochemical; conditions: degree somewhat low in comparison with ADAM17
T4 construct: purchased Funakoshi Co., Ltd. 936-AD-020
T4 sequence (O14672 214-672 limits assumed): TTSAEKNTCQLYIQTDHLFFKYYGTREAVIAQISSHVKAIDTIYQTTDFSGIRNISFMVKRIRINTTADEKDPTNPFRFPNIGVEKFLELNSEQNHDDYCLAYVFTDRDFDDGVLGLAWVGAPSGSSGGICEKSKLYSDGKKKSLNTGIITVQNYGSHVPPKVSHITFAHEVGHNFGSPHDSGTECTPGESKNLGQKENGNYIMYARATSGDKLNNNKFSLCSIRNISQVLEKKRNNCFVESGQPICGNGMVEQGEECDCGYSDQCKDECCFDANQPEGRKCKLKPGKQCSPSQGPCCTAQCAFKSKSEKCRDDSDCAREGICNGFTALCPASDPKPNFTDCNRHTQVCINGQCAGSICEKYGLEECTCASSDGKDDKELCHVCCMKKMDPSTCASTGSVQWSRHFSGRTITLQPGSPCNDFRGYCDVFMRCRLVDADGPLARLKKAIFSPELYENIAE
Procedure: A disintegrin and metalloproteinase 10 (ADAM10) (manufactured by Funakoshi Co., Ltd., product code: 936-AD-020) and
TACE substrate (the same as one used in Test Example 3): excitation wavelength at 355 nm, emission wavelength at 460 nm
as §1, with “activity. An inhibition rate was obtained based on the enzyme activities in the presence and absence of the test substances, and the 50% inhibitory concentration (IC50) was calculated.” for “activity.”

[5] = molecular target: T5, Matrix metalloproteinase 17 (MMP-17) (Homo sapiens, UniProt Q9ULZ9); experiment: Enzyme inhibition experiment, MMP-17; format: biochemical; conditions: 3163 substrate, 25° C., 5 hours
T5 construct: purchased Calbiochem 475940
T5 sequence (Q9ULZ9 126-298 limits assumed): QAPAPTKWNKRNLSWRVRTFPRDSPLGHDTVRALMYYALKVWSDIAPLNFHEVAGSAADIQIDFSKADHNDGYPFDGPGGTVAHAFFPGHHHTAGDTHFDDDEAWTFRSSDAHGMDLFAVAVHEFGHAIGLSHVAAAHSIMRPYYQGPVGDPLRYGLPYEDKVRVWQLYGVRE
Procedure: Matrix metalloproteinase 17 (MMP-17) (manufactured by Calbiochem, product number: 475940)
(§2) 3168 substrate (MOCAc-Arg-Pro-Lys-Pro-Val-Glu-Nva-Trp-Arg-Lys(Dnp)-NH2, manufactured by Peptide Institute, Inc.): excitation wavelength at 320 nm, emission wavelength at 405 nm, and 3163 substrate (MOCAc-Pro-Leu-Gly-Leu-A2pr(Dnp)-Ala-Arg-NH2, manufactured by Peptide Institute, Inc.): excitation wavelength at 320 nm, emission wavelength at 405 nm.
as §1, with “activity. An inhibition rate was obtained based on the enzyme activities in the presence and absence of the test substances, and the 50% inhibitory concentration (IC50) was calculated.” for “activity.”

[6] = tested on: ES cell-derived platelets (ADAM17-mediated GPIbα shedding); experiment: Function-maintaining effect on ES cell-derived platelets in culture system (flow cytometry CD41/CD42b, platelet count)
Procedure: As human ES cells (hES cells), a KhES cell line (KhES-3) established by and provided from Institute for Frontier Medical Sciences, Kyoto University was used.
The human ES cells or the human iPS cells were seeded on the feeder cells such that the cell count was 5×10^4 to 1×10^5/10-cm dish. The cells were cultured in Iscove's Modified Dulbecco's Medium (IMDM, manufactured by Invitrogen Corp/GIBCO) supplemented with 15% FBS (product name: CELLect™ GOLD, manufactured by ICN Biomedicals Inc.), 2 mM L-glut amine (manufactured by Invitrogen Corp.), ITS supplement (10 μg/ml insulin, 5.5 mg/ml human transferrin, 5 ng/ml sodium selenite) (manufactured by Sigma-Aldrich Co.), 50 μg/ml ascorbic acid (Sigma-Aldrich Co.), 0.45 mM α-monothioglycerol (MTG, manufactured by Sigma-Aldrich Co.), and 20 ng/ml vascular endothelial growth factor (VEGF, manufactured by R&D Systems, Inc.). Further, this culturing was carried out at 37° C. in 5% CO2 and 21% O2 (atmospheric oxygen) using a CO2 incubator (product name: HERA CELL 150i, manufactured by Thermo Fisher Scientific K. K.). Then, the medium was replaced every 3 days, and the culturing was continued under the conditions until Day 15 when a large number of sac structures (sac-like structures) containing hematopoietic progenitor cells therein were observed.
Next, after detached from the dish, the sac structures were disrupted and suspended in a 3% FBS-containing phosphate buffer solution (PBS). Then, the suspension was passed through a 40-μm cell strainer (manufactured by BD). The solution thus passed through was centrifuged at 440×g for 10 minutes to collect hematopoietic progenitor cells, and the cells was counted. The hematopoietic progenitor cells were seeded on 10T1/2 cells newly prepared in a 6-well plate (6×10^5 cells/plate) exposed to 50-Gy radiation such that the number of the hematopoietic progenitor cells was 2 to 3×10^4/well. The hematopoietic progenitor cells were further cultured for 8 days in IMDM (manufactured by Invitrogen Corp/GIBCO) supplemented with 15% FBS (product name: CELLect™ GOLD, manufactured by ICN Biomedicals Inc.), 2 mM L-glutamine (manufactured by Invitrogen Corp.), ITS supplement (10 μg/ml insulin, 5.5 mg/ml transferrin, 5 ng/ml sodium selenite) (manufactured by Sigma-Aldrich Co.), 50 μg/ml ascorbic acid (manufactured by Sigma-Aldrich Co.), 0.45 mM MTG (manufactured by Sigma-Aldrich Co.), 100 ng/ml human thrombopoietin (human TPO, manufactured by PeproTech, Inc.), 50 ng/ml human stem cell factor (SCF, manufactured by PeproTech, Inc.), and 25 U/ml heparin. Thereby, megakaryocytes/platelets were induced.
Subsequently, the induced megakaryocytes/platelets were collected with an anticoagulant solution (Acid Citrate Dextrose, ACD), followed by centrifugation at 900 rpm for 10 minutes without a break. The supernatant obtained by the centrifugation was further centrifuged at 1500 rpm for 10 minutes without a break to remove the supernatant. Thereafter, the numbers of megakaryocytes and platelets in the precipitate thus obtained were analyzed by flow cytometry using antibodies for staining.
Note that, in the flow cytometry, FACS Aria manufactured by Becton, Dickinson and Company was used. As the antibodies used to stain the megakaryocytes and the platelets, used were a Phycoerythrin (PE)-modified anti-human CD42a (GPIX) antibody, a PE-modified anti-human CD42b (GPIbα) antibody, and an allophycocyanin (APC)-labelled anti-CD41a (integrin αIIbbeta3 complex, HIP8 clone) antibody (manufactured by BD Bioscience). Additionally, in order to accurately measure the absolute numbers of the megakaryocytes and the platelets, the cells were stained with these antibodies, and the analysis was conducted by flow cytometry using TruCount beads (manufactured by BD Bioscience), also.

[7] = molecular target: T6, Matrix metalloproteinase 3 (MMP-3) (Homo sapiens, UniProt P08254); experiment: Enzyme inhibition experiment, MMP-3; format: biochemical; conditions: 3168 substrate, 37° C., 4 hours
T6 construct: purchased Calbiochem 444217
T6 sequence (P08254 100-272 limits assumed): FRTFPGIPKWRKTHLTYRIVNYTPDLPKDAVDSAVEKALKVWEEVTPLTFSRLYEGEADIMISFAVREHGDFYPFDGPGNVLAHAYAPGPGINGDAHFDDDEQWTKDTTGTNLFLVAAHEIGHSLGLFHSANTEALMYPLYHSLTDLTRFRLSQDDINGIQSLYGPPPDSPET
Procedure: Matrix metalloproteinase 3 (MMP-3) (manufactured by Calbiochem, product number: 444217)
as §2
as §1, with “activity. An inhibition rate was obtained based on the enzyme activities in the presence and absence of the test substances, and the 50% inhibitory concentration (IC50) was calculated.” for “activity.”

T1 sequence (P22894 101-467): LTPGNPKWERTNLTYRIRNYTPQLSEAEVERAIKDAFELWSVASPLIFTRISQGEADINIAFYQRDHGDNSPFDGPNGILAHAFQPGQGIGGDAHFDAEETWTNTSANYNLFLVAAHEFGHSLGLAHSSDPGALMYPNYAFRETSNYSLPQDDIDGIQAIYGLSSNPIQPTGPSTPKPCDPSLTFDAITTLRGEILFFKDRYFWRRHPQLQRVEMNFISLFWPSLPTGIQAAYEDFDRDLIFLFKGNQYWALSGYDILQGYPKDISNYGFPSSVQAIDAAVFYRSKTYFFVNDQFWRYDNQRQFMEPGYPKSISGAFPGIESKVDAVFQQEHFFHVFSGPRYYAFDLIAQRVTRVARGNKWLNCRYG

SMILES	IC50 [1] [µM]	IC50 [2] [µM]	IC50 [3] [µM]	suppression of ADAM10 (in words) [4]	IC50 [5] [µM]	inhibitory effect on GPIbα shedding compared with 50 μM GM6001 ([6]; Test Example 5, S-45282 at 5 μM)	inhibition of ADAM17-mediated GPIbα shedding (CD42b(+) percentage) ([6]; Test Example 5, added for 2 days or 8 days, GM6001 50 μM, S-45282 5 μM or 50 μM)	number of platelets obtained ([6]; Test Example 5, added for 2 days, 50 μM GM6001, 5 μM S-45282)	IC50 [7] [µM]	inhibition of ADAM17-mediated GPIbα shedding ([6]; Test Example 6, 8 days, S-45457 5 μM or 50 μM, GM6001 50 μM)	toxicity to cells (total number of platelets) ([6]; Test Example 7, ES cells and differentiated cells, 1.5 to 50 μM, 8 days)	concentration dependency of inhibition of GPIbα shedding ([6]; Test Example 7, ES cells, S-45457 1.5 to 50 μM, 8 days)
CC#CCOc1ccc(S(=O)(=O)CC(c2ccc(CN(CC)CC)cc2)N(O)C=O)cc1 (stereo not drawn) [Compound I-1, N-[2-(4-But-2-ynyloxybenzenesulfonyl)-1-(4-diethylaminomethylphenyl)ethyl]-N-hydroxyformamide]	0.9	11	> 100	suppressed ADAM10	2.8	inhibitory effect equivalent to 50 μM GM6001	inhibit ADAM17-mediated GPIbα shedding	approximately the same	8.3	–	–	–
CC#CCOc1ccc(S(=O)(=O)CC(c2ccc(CNS(C)(=O)=O)cc2)N(O)C=O)cc1 (stereo not drawn) [Compound I-4, N-{4-[2-(4-But-2-ynyloxybenzenesulfonyl)-1-(formylhydroxyamino)ethyl]benzyl}methanesulfonamide]	0.95	11	> 100	suppressed ADAM10	3.4	–	–	–	6.5	inhibits ADAM17-mediated GPIbα shedding	low toxicity	inhibit ADAM17-mediated GPIbα shedding in a manner dependent on the added concentration
